Experimental data reported in patent EP0609289B1, “IMIDAZOLE DERIVATIVES AND PHARMACEUTICAL COMPOSITIONS CONTAINING THE SAME” (THE UPJOHN COMPANY, priority 1991, dated 1993).

Experiments:
Angiotensin II receptor = experiment: In vitro angiotensin II mesenteric artery receptor binding assay (test 1); conditions: rat mesenteric artery membrane fraction, 0.2 nM 125I-Ang II, 22°C, 90 minutes
Description: I) In vitro angiotensin II mesenteric artery receptor binding assay
According to the method (1) by Gunther et al., a membrane fraction was prepared from mesenteric artery of male rat, […] protein equivalent of it and 0.2 nM ^125I-Ang II as well as various concentrations of test compounds were incubated at 22°C for 90 minutes in an incubation buffer (50 mM Tris-HCl, 120 mM NaCl, 5 mM MgCl2. 0.25% bovine serum albumin, pH 7.2) (reaction volume; 200 µl). The incubated was cooled, and the reaction was stopped by addition of ice-cooled phosphate buffer (10 mM phosphate, 140 mM NaCI, pH 7.4, hereinafter referred to as PBS), and then the reaction solution was filtered through a glass fiber filter (Whatman CF/B), the filter was washed, dried, and then the radioactivity of captured ^125I-angiotensin II which bound to the receptor was measured by a γ-counter. Non-specific bound amount was obtained from the reaction in the presence of 1 µM of unlabeled angiotensin II. […] Res., 17:278-286, 1980].

[1] = system: angiotensin II constriction in an isolated rabbit thoracic aorta; experiment: Antagonism to angiotensin II constriction in an isolated rabbit thoracic aorta (test 3); conditions: test compound 10^-6 M for 20 minutes
Description: 3) Antagonism to angiotensin II constriction in an isolated rabbit thoracic aorta
A rectangular strip-like sample of thoracic aorta isolated from an anaesthetized rabbit was prepared, and the sample was suspended at 2.0 g of loaded tension in a Magnus tube filled with Krebs-Henseleitoid nutrition solution which was well aerated with 95% O2-5% CO2, and the constriction tension was measured using an isometric transducer. After the tension of the sample at rest became stable, accumulative administration of angiotensin II was carried out to obtain a concentration-action curve. Thereafter, the sample was washed with the same nutrition solution, then treated with test compound (10^-6 M) for 20 minutes to obtain again a concentration-action curve of angiotensin II. The results were obtained as followed: generated maximum tension at the first accumulative administration of angiotensin II was regarded as 100 %, and the 50 % effective concentration (ED50) was obtained in the presence or absence of the test compound, and pA2 value was calculated according to the following equations: • pA2=-logKB KB=C/{(A'/A)-1} • C; concentration of the test compound (M) • A'; ED50 in the presence of test compound (M) • A; ED50 in the absence of the test compound (M)

[2] = system: blood pressure increase by angiotensin II; experiment: Antagonism to blood pressure increase by angiotensin II in a spine destroyed (pithed) rat (test 4); format: in vivo, Wistar rat; conditions: intravenous administration, 3µg/kg angiotensin II, read-out: Inhibition of blood pressure increase by angiotensin II in pithed rat ED50(mg/kg) (test 4)
Description: 4) Antagonism to blood pressure increasing by angiotensin II in a spine destroyed rat
Wistar rat anaesthetized with pentobarbital was fixed at dorsal position, and a cannula for measuring blood pressure was inserted into sinister arteria carotis communis, and a cannula for administration of the test compound into dexter external jugular vein and a cannula for administration of angiotensin II into sinister external jugular vein, ambilateral nervus vagus was cut, and artificial respiration was carried out. A thin bar made of metal was stabbed into spinal column through sinister orbita to destroy spine. Blood pressure was recorded on polygraph via pressure transducer from an arterial cannula. After blood pressure was stable for more than 30 min., 3µg/kg of angiotensin II was administered intravenously four times every 15 min, and every 5 min. before the administration of angiotensin II from the second administration onward, a solvent, a lower dose of the test compound, and a higher dose of the test compound were administered intravenously in this order to observe the blood pressure increasing response by angiotensin II. ED50 values were calculated from the inhibiting rate when the first blood pressure increase by angiotensin II was regarded as 100 %.

Compound | IC50 (Angiotensin II receptor) [nM] | Inhibition of rabbit aorta constriction pA2 (test 3) [1] | ED50 [2] [mg/kg]
CCCc1nc2c(n1Cc1ccc(-c3ccccc3-c3nn[nH]n3)cc1)C(=O)N1C(C)CCC(C)N1C2 (centres unmarked) [Compound No. 430, 5,8-dimethyl-2-n-propyl-5,6,7,8-tetrahydro-1-[{2'-(1H-tetrazol-5-yl)biphenyl-4-yl}methyl]-1H,4H-1,3,4a,8a-tetraza-cyclopentanaphthalene-9-one] | 3.9 | 10.04 | –
CCCCc1nc2c(=O)n3n(c(=O)c2n1Cc1ccc(-c2ccccc2-c2nn[nH]n2)cc1)C1C=CC3CC1 (centres unmarked) [compound 106, 2-n-butyl-5,8-dihydro-5,8-ethano-1-[(2'-(1H-tetrazol-5-yl)biphenyl-4-yl)methyl]-1H-1,3,4a,8a-tetraza-cyclopentanaphthalene-4,9-dione] | 3.8 | 9.2 | –
CCCc1nc2c(n1Cc1ccc(-c3ccccc3-c3nn[nH]n3)cc1)C(=O)N1CCCCN1C2 [Compound No. 366, 2-n-propyl-5,6,7,8-tetrahydro-1-[{2'-(1H-tetrazol-5-yl)biphenyl-4-yl}methyl]-1H,4H-1,3,4a,8a-tetraza-cyclopentanaphthalene-9-one] | 32 | 9.32 | –
CCCc1nc2c(=O)n3n(c(=O)c2n1Cc1ccc(-c2ccccc2-c2nn[nH]n2)cc1)CCCC3 [Compound No. 46, 2-n-propyl-5,6,7,8-tetrahydro-1-[(2'-(1H-tetrazol-5-yl)biphenyl-4-yl)methyl]-1H-1,3,4a,8a-tetraza-cyclopentanaphthalene-4,9-dione] | 3.3 | 8.95 | –
CCCc1nc2c(=O)n3n(c(=O)c2n1Cc1ccc(-c2ccccc2-c2nn[nH]n2)cc1)C(C)CCC3C(=O)O (centres unmarked) [Compound No. 111, 4,9-dioxo-8-methyl-2-n-propyl-5,6,7,8-tetrahydro-1-[(2'-(1H-tetrazol-5-yl)biphenyl-4-yl)methyl]-1H-1,3,4a,8a-tetraza-cyclopentanaphthalene-5-carboxylic acid] | 21 | 9.01 | 0.51
CCCCc1nc2c(=O)n3n(c(=O)c2n1Cc1ccc(-c2ccccc2-c2nn[nH]n2)cc1)CC=CC3 [Compound No. 71, 2-n-butyl-5,8-dihydro-1-[(2'-(1H-tetrazol-5-yl)biphenyl-4-yl)methyl]-1H-1,3,4a,8a-tetraza-cyclopentanaphthalene-4,9-dione] | 7 | 9.09 | –
CCCCc1nc2c(=O)n3n(c(=O)c2n1Cc1ccc(-c2ccccc2-c2nn[nH]n2)cc1)C1CCC3CC1 [Compound No. 109, 2-n-butyl-5,8-ethano-5,6,7,8-tetrahydro-1-[(2'-(1H-tetrazol-5-yl)biphenyl-4-yl)methyl]-1H-1,3,4a,8a-tetraza-cyclopentanaphthalene-4,9-dione] | 2.8 | 9.49 | 0.21
CCCc1nc2c(=O)n3n(c(=O)c2n1Cc1ccc(-c2ccccc2-c2nnn[nH]2)cc1)C1CCC3(COCC(=O)OC(C)(C)C)CC1 [Compound No. 223, 5-t-butoxycarboxylmethoxymethyl-5,8-ethano-2-n-propyl-5,6,7,8-tetrahydro-1-[{2'-(1H-tetrazol-5-yl)biphenyl-4-yl}methyl]-1H-1,3,4a,8a-tetraza-cyclopentanaphthalene-4,9-dione] | 9.8 | 9.68 | 0.1
CCCc1nc2c(=O)n3n(c(=O)c2n1Cc1ccc(-c2ccccc2-c2nn[nH]n2)cc1)C(C)CCC3C(=O)N(CC)CC (centres unmarked) [Compound No. 203, 4,9-dioxo-8-methyl-2-n-propyl-5,6,7,8-tetrahydro-1-[{2'-(1H-tetrazol-5-yl)biphenyl-4-yl}methyl]-1H-1,3,4a,8a-tetraza-cyclopentanaphthalene-5-carboxy-N,N-diethylamide] | 1.9 | 10.0 | –
CCCc1nc2c(n1Cc1ccc(-c3ccccc3-c3nn[nH]n3)cc1)C(=O)N1C3CCC(CC3)N1C2 [Compound No. 438, 5,8-ethano-2-n-propyl-5,6,7,8-tetrahydro-1-[{2'-(1H-tetrazol-5-yl)biphenyl-4-yl}methyl],1H,4H-1,3,4a,8a-tetraza-cyclopentanaphthalene-9-one] | 7.5 | 8.57 | 0.37
CCCCc1nc2c(=O)n3n(c(=O)c2n1Cc1ccc(-c2ccccc2-c2nn[nH]n2)cc1)CC(C)C(C)C3 (centres unmarked) [Compound No. 51, 2-n-butyl-6,7-dimethyl-5,6,7,8-tetrahydro-1-[(2'-(1H-tetrazol-5-yl)biphenyl-4-yl)methyl]-1H-1,3,4a,8a-tetraza-cyclopentanaphthalene-4,9-dione] | 4.6 | 9.04 | 0.65
CCCCc1nc2c(=O)n3n(c(=O)c2n1Cc1ccc(-c2ccccc2-c2nnn[nH]2)cc1)C1CCC3(CO)CC1 [Compound No. 220, 2-n-butyl-5,8-ethano-5-hydroxymethyl-5,6,7,8-tetrahydro-1-[{2'-(1H-tetrazol-5-yl)biphenyl-4-yl}methyl]-1H-1,3,4a,8a-tetraza-cyclopentanaphthalene-4,9-dione] | 2.6 | 9.93 | 0.27
CCCc1nc2c(=O)n3n(c(=O)c2n1Cc1ccc(-c2ccccc2-c2nn[nH]n2)cc1)C1CCC3(C(=O)NC(C)(C)C)CC1 [Compound No. 235, 4,9-dioxo-5,8-ethano-2-n-propyl-5,6,7,8-tetrahydro-1-[{2'-(1H-tetrazol-5-yI)biphenyl-4-yl}methyl]-1H-1,3,4a,8a-tetraza-cyclopentanaphthalene-5-carboxy-N-t-butylamide] | 21 | 9.62 | 0.07
CCCCc1nc2c(=O)n3n(c(=O)c2n1Cc1ccc(-c2ccccc2-c2nnn[nH]2)cc1)C(C)CCC3C(=O)NC(C)(C)C (centres unmarked) [Compound No. 208, 2-n-butyl-4,9-dioxo-8-methyl-5,6,7,8-tetrahydro-1-[{2'-(1H-tetrazol-5-yl)biphenyl-4-yl}methyl]-1H-1,3,4a,8a-tetraza-cyclopentanaphthalene-5-carboxy-N-t-butylamide] | 8.2 | – | 0.12
CCCCc1nc2c(=O)n3n(c(=O)c2n1Cc1ccc(-c2ccccc2-c2nn[nH]n2)cc1)CC(C)=C(C)C3 [compound 68, 2-n-butyl-5,8-dihydro-6,7-dimethyl-1-[(2'-(1H-tetrazol-5-yl)biphenyl-4-yl)methyl]-1H-1,3,4a,8a-tetraza-cyclopentanaphthalene-4,9-dione] | 8.1 | – | 0.56
CCCCc1nc2c(=O)n3n(c(=O)c2n1Cc1ccc(-c2ccccc2-c2nn[nH]n2)cc1)C1CCC3(C(=O)OCC)CC1 [Compound No. 196, ethyl 2-n-butyl-4,9-dioxo-5,8-ethano-5,6,7,8-tetrahydro-1-[{2'-(1H-tetrazol-5-yl)biphenyl-4-yl}methyl]-1H-1,3,4a,8a-tetraza-cyclopentanaphthalene-5-carboxylate] | 4.6 | – | 0.23
CCCCc1nc2c(=O)n3n(c(=O)c2n1Cc1ccc(-c2ccccc2-c2nn[nH]n2)cc1)C(C)CCC3C(=O)OCC (centres unmarked) [compound 169, ethyl 2-n-butyl-4,9-dioxo-8-methyl-5,6,7,8-tetrahydro-1-[{2'-(1H-tetrazol-5-yl)biphenyl-4-yl}methyl]-1H-1,3,4a,8a-tetraza-cyclopentanaphthalene-5-carboxylate] | 1.3 | 10.19 | –
